Calls of active or inactive are those of the source. No cut-off for these calls is given here.
Assays:
[1] = target: Histone deacetylase; test: Inhibition of HDAC in human HeLa cell nuclear extracts; assay type: cell-based
[2] = Inhibition of HDAC assessed as histone H3K'9+14 acetylation levels by cell based histone H3 hyperacetylation assay
[3] = target: Histone deacetylase 1 (Homo sapiens, UniProt Q13547); test: Inhibition of human recombinant HDAC1 expressed in HEK293 cells; assay type: cell-based
[4] = target: T1, Protein deacetylase HDAC6 (Homo sapiens, UniProt Q9UBN7); test: (§1) Inhibition of human recombinant HDAC6 expressed in HEK293 cells; assay type: cell-based
T1 sequence (Q9UBN7 whole entry): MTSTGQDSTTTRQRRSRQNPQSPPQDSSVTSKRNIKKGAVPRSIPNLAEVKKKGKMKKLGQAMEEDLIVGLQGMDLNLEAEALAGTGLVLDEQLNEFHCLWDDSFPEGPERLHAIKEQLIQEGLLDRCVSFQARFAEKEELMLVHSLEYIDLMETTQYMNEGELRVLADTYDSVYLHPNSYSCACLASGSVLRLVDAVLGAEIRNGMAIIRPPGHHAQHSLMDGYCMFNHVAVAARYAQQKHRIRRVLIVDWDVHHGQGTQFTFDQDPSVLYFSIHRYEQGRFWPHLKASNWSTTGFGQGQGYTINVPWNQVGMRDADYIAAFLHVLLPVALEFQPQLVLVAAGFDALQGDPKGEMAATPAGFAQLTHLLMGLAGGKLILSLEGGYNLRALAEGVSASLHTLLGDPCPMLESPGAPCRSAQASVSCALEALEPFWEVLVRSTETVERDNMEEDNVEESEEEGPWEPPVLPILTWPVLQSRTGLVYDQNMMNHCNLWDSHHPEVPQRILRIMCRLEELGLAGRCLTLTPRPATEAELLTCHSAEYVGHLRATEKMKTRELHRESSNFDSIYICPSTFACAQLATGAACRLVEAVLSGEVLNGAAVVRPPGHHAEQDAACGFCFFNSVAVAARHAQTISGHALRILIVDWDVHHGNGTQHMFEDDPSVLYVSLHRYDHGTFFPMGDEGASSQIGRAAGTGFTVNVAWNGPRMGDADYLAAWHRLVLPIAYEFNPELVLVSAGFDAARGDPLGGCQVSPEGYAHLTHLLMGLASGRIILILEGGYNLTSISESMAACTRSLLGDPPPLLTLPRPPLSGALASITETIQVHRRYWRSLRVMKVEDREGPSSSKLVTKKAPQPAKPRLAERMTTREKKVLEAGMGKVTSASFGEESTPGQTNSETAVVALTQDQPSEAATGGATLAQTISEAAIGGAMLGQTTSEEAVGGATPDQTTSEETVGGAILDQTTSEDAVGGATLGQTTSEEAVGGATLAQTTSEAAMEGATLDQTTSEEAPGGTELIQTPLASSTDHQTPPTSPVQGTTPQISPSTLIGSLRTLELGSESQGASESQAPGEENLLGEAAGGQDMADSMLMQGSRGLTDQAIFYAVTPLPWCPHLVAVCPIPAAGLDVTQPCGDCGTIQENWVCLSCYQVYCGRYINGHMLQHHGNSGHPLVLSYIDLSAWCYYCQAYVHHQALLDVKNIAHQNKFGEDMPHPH

[5] = target: Histone deacetylase 3 (Homo sapiens, UniProt O15379); test: Inhibition of Flag tagged human recombinant HDAC3 expressed in Sf21 cells coexpressing SMRT DAD domain
[6] = target: T2, Histone deacetylase 8 (Homo sapiens, UniProt Q9BY41); test: Inhibition of Flag tagged human recombinant HDAC8 expressed in Sf21 cells
T2 sequence (Q9BY41 whole entry): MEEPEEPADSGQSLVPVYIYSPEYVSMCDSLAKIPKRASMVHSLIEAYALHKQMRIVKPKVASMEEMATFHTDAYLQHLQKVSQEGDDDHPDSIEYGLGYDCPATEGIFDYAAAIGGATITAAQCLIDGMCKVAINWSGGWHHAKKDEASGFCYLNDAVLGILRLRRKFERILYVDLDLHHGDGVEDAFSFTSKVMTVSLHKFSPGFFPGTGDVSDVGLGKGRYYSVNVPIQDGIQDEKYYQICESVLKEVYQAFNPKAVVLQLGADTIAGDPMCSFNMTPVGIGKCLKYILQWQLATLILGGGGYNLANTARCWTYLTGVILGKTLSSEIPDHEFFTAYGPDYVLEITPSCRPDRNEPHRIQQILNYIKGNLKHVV

[7] = target: T3, Epidermal growth factor receptor (Homo sapiens, UniProt P00533); test: Inhibition of EGFR by flash plate based radioactive enzyme assay
T3 sequence (P00533 whole entry): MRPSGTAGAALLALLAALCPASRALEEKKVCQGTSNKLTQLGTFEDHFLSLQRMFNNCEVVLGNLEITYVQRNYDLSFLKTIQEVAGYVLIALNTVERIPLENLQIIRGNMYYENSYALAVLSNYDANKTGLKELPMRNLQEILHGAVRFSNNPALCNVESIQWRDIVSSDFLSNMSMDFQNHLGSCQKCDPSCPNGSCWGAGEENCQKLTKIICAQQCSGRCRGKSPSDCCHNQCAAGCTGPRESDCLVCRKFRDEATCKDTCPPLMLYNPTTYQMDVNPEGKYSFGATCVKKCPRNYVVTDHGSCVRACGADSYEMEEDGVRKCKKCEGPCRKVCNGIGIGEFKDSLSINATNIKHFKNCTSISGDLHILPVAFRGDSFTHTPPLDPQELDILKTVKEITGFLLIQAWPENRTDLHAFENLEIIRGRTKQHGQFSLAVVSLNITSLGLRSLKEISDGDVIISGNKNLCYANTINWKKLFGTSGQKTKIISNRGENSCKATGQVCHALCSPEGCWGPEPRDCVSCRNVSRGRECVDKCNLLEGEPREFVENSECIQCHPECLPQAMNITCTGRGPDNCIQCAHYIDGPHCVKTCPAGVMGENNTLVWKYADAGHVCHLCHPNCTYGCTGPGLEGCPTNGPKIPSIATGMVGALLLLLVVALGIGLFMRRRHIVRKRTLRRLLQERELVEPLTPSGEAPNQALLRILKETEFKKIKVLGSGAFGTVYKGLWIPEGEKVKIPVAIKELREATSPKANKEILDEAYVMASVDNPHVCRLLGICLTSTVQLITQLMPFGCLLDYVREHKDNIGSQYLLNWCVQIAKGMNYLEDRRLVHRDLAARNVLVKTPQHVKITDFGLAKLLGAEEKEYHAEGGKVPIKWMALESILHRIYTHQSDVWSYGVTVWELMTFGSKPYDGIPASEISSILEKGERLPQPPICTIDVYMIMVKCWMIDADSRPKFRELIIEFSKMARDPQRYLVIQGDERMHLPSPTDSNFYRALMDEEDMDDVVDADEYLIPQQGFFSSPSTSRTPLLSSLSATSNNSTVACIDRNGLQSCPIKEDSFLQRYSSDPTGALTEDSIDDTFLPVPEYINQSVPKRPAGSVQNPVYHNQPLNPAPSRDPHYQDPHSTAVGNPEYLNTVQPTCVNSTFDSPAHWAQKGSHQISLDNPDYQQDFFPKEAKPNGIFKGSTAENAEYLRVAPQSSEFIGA

[8] = target: Receptor tyrosine-protein kinase erbB-2 (Homo sapiens, UniProt P04626); test: Inhibition of HER2 by flash plate based radioactive enzyme assay
Receptor tyrosine-protein kinase erbB-2, sequence (P04626 whole entry): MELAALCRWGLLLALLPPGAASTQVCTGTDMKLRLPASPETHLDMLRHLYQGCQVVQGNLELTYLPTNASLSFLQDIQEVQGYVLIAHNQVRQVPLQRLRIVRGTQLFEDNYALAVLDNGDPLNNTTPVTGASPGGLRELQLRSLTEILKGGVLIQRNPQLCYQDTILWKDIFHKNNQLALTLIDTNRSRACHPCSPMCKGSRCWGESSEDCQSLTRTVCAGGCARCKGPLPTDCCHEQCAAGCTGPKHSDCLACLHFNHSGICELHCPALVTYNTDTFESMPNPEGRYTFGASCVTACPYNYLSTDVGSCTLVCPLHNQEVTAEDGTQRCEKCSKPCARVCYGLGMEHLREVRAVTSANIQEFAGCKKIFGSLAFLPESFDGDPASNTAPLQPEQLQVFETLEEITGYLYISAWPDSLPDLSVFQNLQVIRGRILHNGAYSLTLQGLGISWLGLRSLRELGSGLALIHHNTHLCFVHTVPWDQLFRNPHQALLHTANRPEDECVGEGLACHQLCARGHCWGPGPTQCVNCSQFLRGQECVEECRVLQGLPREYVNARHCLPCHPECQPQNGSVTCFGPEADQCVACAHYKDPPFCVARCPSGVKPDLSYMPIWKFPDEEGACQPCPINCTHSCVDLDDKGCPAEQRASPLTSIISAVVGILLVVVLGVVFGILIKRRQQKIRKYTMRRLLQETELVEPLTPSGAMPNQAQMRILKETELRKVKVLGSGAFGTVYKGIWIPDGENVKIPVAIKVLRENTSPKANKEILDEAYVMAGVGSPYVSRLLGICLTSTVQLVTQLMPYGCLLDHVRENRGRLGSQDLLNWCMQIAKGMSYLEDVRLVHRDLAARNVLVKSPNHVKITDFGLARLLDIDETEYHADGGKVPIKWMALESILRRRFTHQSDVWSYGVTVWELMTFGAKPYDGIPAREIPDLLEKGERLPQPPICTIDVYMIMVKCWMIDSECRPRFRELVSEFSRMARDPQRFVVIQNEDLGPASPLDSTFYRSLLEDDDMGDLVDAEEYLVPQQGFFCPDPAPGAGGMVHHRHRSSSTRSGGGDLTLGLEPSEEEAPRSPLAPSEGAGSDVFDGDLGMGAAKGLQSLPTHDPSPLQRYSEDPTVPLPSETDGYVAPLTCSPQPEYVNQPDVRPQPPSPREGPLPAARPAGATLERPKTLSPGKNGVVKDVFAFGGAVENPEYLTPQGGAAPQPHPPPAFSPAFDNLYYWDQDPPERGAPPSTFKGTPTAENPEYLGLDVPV

[9] = target: Platelet-derived growth factor receptor beta (Homo sapiens, UniProt P09619); test: Inhibition of PDGFRbeta by flash plate based radioactive enzyme assay
[10] = target: Insulin receptor (Homo sapiens, UniProt P06213); test: Inhibition of INSR by flash plate based radioactive enzyme assay
Insulin receptor, sequence (P06213 28-758 limits assumed): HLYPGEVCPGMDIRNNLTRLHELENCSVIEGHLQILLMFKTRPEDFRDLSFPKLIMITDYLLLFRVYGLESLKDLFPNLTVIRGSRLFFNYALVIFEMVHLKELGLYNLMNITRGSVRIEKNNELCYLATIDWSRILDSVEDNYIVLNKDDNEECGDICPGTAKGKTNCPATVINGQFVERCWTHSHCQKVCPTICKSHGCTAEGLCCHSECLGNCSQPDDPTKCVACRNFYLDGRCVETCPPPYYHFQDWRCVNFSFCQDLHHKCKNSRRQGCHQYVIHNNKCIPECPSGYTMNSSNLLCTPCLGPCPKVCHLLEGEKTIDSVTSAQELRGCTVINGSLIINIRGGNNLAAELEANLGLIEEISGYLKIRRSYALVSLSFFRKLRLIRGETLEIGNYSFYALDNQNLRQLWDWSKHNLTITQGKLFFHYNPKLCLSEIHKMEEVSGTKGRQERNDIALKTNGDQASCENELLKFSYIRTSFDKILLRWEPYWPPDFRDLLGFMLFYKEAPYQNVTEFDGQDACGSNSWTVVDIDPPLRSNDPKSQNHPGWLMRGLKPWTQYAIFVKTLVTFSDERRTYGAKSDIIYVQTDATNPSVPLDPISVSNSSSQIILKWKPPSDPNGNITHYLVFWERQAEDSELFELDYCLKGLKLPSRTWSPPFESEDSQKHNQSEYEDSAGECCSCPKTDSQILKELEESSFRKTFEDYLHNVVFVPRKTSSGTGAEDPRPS
Insulin receptor, sequence (P06213 763-1382 limits assumed): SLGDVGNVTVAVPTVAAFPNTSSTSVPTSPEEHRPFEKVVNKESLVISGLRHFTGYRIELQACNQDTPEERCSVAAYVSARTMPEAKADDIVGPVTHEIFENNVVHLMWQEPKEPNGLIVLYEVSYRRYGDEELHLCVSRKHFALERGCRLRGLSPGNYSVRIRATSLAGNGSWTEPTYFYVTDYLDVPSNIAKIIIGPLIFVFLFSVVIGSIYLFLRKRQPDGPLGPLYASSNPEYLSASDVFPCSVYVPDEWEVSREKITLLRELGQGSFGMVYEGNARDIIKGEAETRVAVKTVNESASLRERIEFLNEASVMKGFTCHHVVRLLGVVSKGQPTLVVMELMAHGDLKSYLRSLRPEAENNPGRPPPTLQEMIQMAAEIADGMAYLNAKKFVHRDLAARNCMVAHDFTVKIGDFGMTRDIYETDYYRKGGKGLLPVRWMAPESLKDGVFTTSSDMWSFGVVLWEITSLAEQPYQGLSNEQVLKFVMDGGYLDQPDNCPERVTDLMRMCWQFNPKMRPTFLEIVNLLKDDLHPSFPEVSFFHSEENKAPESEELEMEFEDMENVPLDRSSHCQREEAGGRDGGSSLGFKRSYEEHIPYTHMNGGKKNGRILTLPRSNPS

[11] = target: Tyrosine-protein kinase ABL1 (Homo sapiens, UniProt P00519); test: Inhibition of ABL1 by flash plate based radioactive enzyme assay
Tyrosine-protein kinase ABL1, sequence (P00519 whole entry): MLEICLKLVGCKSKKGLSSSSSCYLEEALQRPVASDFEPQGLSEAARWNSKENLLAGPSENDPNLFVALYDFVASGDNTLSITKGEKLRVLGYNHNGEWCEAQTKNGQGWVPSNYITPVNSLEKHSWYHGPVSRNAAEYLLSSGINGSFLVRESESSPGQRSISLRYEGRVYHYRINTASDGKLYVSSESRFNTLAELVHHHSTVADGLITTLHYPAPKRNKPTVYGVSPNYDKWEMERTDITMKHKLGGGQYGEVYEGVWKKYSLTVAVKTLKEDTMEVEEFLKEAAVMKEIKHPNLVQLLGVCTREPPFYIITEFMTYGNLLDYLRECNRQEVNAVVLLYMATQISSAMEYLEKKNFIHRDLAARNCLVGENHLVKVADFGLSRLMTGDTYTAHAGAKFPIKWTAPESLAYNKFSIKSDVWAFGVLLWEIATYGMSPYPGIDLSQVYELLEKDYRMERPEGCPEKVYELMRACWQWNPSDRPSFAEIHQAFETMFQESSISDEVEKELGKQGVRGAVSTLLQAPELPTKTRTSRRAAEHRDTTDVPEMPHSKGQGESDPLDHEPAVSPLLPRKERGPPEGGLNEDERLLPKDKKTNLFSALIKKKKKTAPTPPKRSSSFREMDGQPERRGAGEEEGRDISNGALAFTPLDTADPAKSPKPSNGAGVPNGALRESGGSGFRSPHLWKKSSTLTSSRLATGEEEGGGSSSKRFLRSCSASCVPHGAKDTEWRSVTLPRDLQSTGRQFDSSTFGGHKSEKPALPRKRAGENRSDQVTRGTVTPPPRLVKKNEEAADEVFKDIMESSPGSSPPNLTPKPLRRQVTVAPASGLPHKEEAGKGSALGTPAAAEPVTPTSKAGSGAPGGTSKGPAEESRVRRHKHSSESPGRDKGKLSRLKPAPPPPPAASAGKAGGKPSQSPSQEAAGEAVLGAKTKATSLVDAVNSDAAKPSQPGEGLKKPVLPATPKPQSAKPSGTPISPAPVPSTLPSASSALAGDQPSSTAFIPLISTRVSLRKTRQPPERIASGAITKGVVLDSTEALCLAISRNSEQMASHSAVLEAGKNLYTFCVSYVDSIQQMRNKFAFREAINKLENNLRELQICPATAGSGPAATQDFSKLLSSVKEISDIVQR

[12] = target: Cyclin-dependent kinase 2 (Homo sapiens, UniProt P24941); test: Inhibition of CDK2 by flash plate based radioactive enzyme assay
[13] = Inhibition of PKA by flash plate based radioactive enzyme assay
[14] = target: Serine/threonine-protein kinase PLK1 (Homo sapiens, UniProt P53350); test: Inhibition of PLK1 by flash plate based radioactive enzyme assay
[15] = system: A549; test: Cytotoxicity against human A549 cells overexpressing HDAC by resazurin dye reduction assay
[16] = system: HeLa; test: Cytotoxicity against human HeLa cells overexpressing HDAC by resazurin dye reduction assay
[17] = system: A-431; test: Cytotoxicity against human A431 cells overexpressing EGFR by resazurin dye reduction assay
[18] = system: CAL-27; test: Cytotoxicity against human CAL27 cells overexpressing EGFR by resazurin dye reduction assay
[19] = system: SK-BR-3; test: Cytotoxicity against human SKBR3 cells overexpressing HER2 by resazurin dye reduction assay
[20] = system: SK-OV-3; test: Cytotoxicity against human SKOV3 cells overexpressing HER2 by resazurin dye reduction assay; assay type: functional, cell-based
[21] = target: T3, Epidermal growth factor receptor; test: Inhibition of EGF-induced EGFR phosphorylation in human CAL27 cells overexpressing EGFR after 16 hrs by Western blot; assay type: cell-based, CAL-27
[22] = target: Histone deacetylase (Homo sapiens) (UniProt Q13547+O15379+Q9UBN7+Q92769+Q9UQL6+Q8WUI4+Q9BY41+Q96DB2+P56524+Q9UKV0+Q969S8); settings: CAL-27, 1 uM
Description: Inhibition of HADC in human CAL27 cells overexpressing EGFR assessed as effect on histone H2 acetylation at 1 uM after 16 hrs by Western blot

[23] = target: Protein deacetylase HDAC6 (Homo sapiens) (UniProt Q9UBN7); test: as §1; assay type: cell-based

| EC50 [2] [nM] | IC50 [7] [nM] | IC50 [8] [nM] | IC50 [10] [nM] | IC50 [11] [nM] | IC50 [12] [nM] | IC50 [13] [nM] | IC50 [14] [nM] | Structure (SMILES) | IC50 [15] [nM] | IC50 [17] [nM] | IC50 [18] [nM] | IC50 [20] [nM] | also measured |
| --- | --- | --- | --- | --- | --- | --- | --- | --- | --- | --- | --- | --- | --- |
| 4700 | 18 | 11 | 3600 | 5300 | 920 | > 100000 | 6800 | O=C(/C=C/c1cccc(-c2ccc3ncnc(Nc4ccc(OCc5cccc(F)c5)c(Cl)c4)c3c2)c1)NO | 1200 | 720 | 590 | 1000 | IC50 [1]: 47 nM; IC50 [3]: 35 nM; IC50 [4]: 86 nM; IC50 [5]: 66 nM; IC50 [6]: 630 nM; IC50 [9]: 2500 nM; IC50 [16]: 970 nM; IC50 [19]: 350 nM; IC50 [21]: 500 nM; inhibition [22]: Active |
| > 100000 | 4.8 | 3.5 | 1900 | 2700 | 440 | 35000 | 2700 | O=C(/C=C/c1ccc(-c2ccc3ncnc(Nc4ccc(OCc5cccc(F)c5)c(Cl)c4)c3c2)s1)NO | 2600 | 730 | 660 | 4000 | Emax [23]: 70% |

Reference: ChEMBL document CHEMBL1629443 (J Med Chem, 2010)
